Experimental data from patent publication US20240398771A1, “TREATMENT OF SCLERODERMA AND RAYNAUD'S SYNDROME” (Aisa Pharma, Inc., priority 2023, published 2024).

Assays:
Type in all cases: in vivo, human
participants with SSc-RP [1] = assay: Average duration of weekly RP attacks, all attacks (minutes); conditions: ITT Population - Part A (Table B-5)
Text: The relevant metrics measured by this tool daily are: • Study medication • SSc-RP symptoms (Reporting an attack including duration of attack) • Severity of the attack considering all symptoms of the attack e.g. tingling, numbness, pain, color changes (VAS 0-10 cm scale) • Participant's location at the time of the attack (inside home/outside home) • Selecting symptoms experienced during the attack (tingling, numbness, pain, color changes, other) • Pain rating during the attack (11-point Likert scale) • The RCS based on how much difficulty participants had with Raynaud's today, how many attacks the participant had, and how long they lasted. Participants will also be asked to consider how much pain, numbness, or other symptoms the Raynaud's caused in fingers (including painful sores), and how much the Raynaud's alone affected the use of hands today (VAS 0-10 cm scale).
The absolute change in average duration of weekly RP attacks from baseline to the end of each dosing period was and will be a secondary outcome variable. The sponsor-developed participant-informed diary was and will be used to record data. Average duration of weekly RP attacks is defined as the total duration of RP attacks divided by total number of RP attacks within the last 7 days of each dosing period. Total duration of RP attacks during the last 7 days of screening period divided by the total number of RP attacks will be used as baseline for the analysis of all periods. The variable will be calculated similar to frequency data as before.

participants with SSc-RP [2] = assay: SHAQ Visual Analog Scale - Pain
Experimental: (§1) Results: Patients in the study were administered the Scleroderma Health Assessment Questionnaire (SHAQ) at the time of study entry and during clinic visits following the treatment period. The study is a two-part, parallel arm design, prospective, double-blind, randomized study conducted in Australia (Flinders Medical Center). 27 patients were randomized into the first phase of the study, following which a DSMB meeting was held, which reviewed data on the primary study endpoint and key Raynaud's secondary endpoints. Data on the SHAQ was not available for the DSMB to review. The mITT population, in which any data was available post treatment was 24 patients was the analysis population for this first part of the study. The second part (i.e., part B) of the study will randomize 36 patients in a double blind, randomized, prospective, placebo controlled, crossover study. In the first part (i.e., Part A) of the study for which data is presented, patients were randomized into 6 groups, cilnidipine at two doses (10 and 20 mg) alone and in combination with tadalafil 5 mg, tadalafil 5 mg alone, and placebo. […] The DSMB recommended that the study proceed into its double blind prospective cross overpowered second phase and compare cilnidipine 20 mg alone to placebo. […] Cilnidipine treatment may reduce patient-reported SSc disease disability compared to placebo • b. Cilnidipine treatment may reduce patient-reported SSc disease alternative disability compared to placebo • c. Cilnidipine treatment may reduce patient-reported SSc disease pain* compared to placebo • d. Cilnidipine treatment may reduce patient-reported SSc disease severity compared to placebo • e. Cilnidipine treatment may reduce patient-reported SSc disease skin ulcer severity rating compared to placebo • f Cilnidipine treatment may reduce patient-reported SSc disease breathing difficulty compared to placebo • g. […] SSc disease pain comprises not only pain from Raynaud's but joint pain, headache, odynophagia, back pain, pain from skin ulceration, and neuropathic pain). Table E includes results of the Scleroderma Health Assessment Questionnaire.
Pain on the SHAQ outcome measure on the first line in table F is a composite of all pain experienced in patients with SSc, comprising joint pain, back pain, headache, odynophagia, skin ulcer related discomfort, Raynaud's, and neuropathic pain. Aisa Pharma believes, based on the biologic attributes and actions of cilnidipine that differ from most dihydropyridine calcium channel antagonists that cilnidipine might have direct analgesic effects in certain pain conditions and in fact has been designated to receive evaluation through the NIH-NINDS Preclinical Pain Screening Platform Program to investigate the drug in multiple in vitro and in vivo preclinical models of pain that are validated and predictive of effects in man.

participants with SSc-RP [3] = assay: SHAQ Visual Analog Scale - Intestinal Problems; conditions: Cilnidipine 20 mg; Modified ITT, Part A
Experimental: as §1

[4] = last 7 days of dosing period, listed as Cilnidipine 10 mg
[5] = last 7 days of dosing period, listed as Cilnidipine 20 mg
[6] = last 7 days of dosing period, listed as Pooled Cilnidipine
[7] = last 7 days of screening period, listed as Cilnidipine 10 mg
[8] = last 7 days of screening period, listed as Cilnidipine 20 mg
[9] = last 7 days of screening period, listed as Pooled Cilnidipine

In the case of COCCOC(=O)C1=C(C)NC(C)=C(C(=O)OC/C=C/c2ccccc2)C1c1cccc([N+](=O)[O-])c1 (stereo not shown) [Cilnidipine, 1,4-dihydro-2,6-dimethyl,4-(3-nitrophenyl)-3,5-pyridinedicarboxylic acid 2-methoxyethyl (2 E)-3-phenyl-2-propenyl ester], the “Average Duration of weekly RP attacks (All Attacks), Min” value (participants with SSc-RP [1]; [4]) is reported as 31.5, 31.5 minutes, the “Average duration of weekly RP attacks (All Attacks), Change from Baseline, Max” value (participants with SSc-RP [1]; [4]) is reported as −8.5, −8.5 minutes and the “Average duration of weekly RP attacks (All Attacks), Change from Baseline, Min” value (participants with SSc-RP [1]; [4]) is reported as −8.5, −8.5 minutes. The “Average Duration of weekly RP attacks (All Attacks)” value (participants with SSc-RP [1]; [5]) was 3.0 min, the “Average Duration of weekly RP attacks (All Attacks), Max” value (participants with SSc-RP [1]; [5]) was 30.5 min and the “Average Duration of weekly RP attacks (All Attacks), Q1” value (participants with SSc-RP [1]; [5]) was 3.00 min. The “Average duration of weekly RP attacks (All Attacks), Change from Baseline” value (participants with SSc-RP [1]; [5]) was -7.6 min, the “Average duration of weekly RP attacks (All Attacks), Change from Baseline, Max” value (participants with SSc-RP [1]; [5]) was 5.5 min and the “Average duration of weekly RP attacks (All Attacks), Change from Baseline, Q3” value (participants with SSc-RP [1]; [5]) was 5.45 min. For the same compound, the “Average duration of weekly RP attacks (All Attacks), Percent Change from Baseline, Max” value (participants with SSc-RP [1]; [5]) was 21.8%, the “Average duration of weekly RP attacks (All Attacks), Percent Change from Baseline, Min” value (participants with SSc-RP [1]; [5]) was −71.8% and the “Average duration of weekly RP attacks (All Attacks), Percent Change from Baseline, Q1” value (participants with SSc-RP [1]; [5]) was −71.76%. The “Average duration of weekly RP attacks (All Attacks), Percent Change from Baseline, Q3” value (participants with SSc-RP [1]; [5]) was 21.82%, the “Average Duration of weekly RP attacks (All Attacks)” value (participants with SSc-RP [1]; [6]) was 3.0 min and the “Average Duration of weekly RP attacks (All Attacks), Max” value (participants with SSc-RP [1]; [6]) was 31.5 min. For the same compound, the “Average Duration of weekly RP attacks (All Attacks), Q1” value (participants with SSc-RP [1]; [6]) was 3.00 min, the “Average duration of weekly RP attacks (All Attacks), Change from Baseline” value (participants with SSc-RP [1]; [6]) was -8.5 min and the “Average duration of weekly RP attacks (All Attacks), Change from Baseline, Max” value (participants with SSc-RP [1]; [6]) was 5.5 min. The “Average duration of weekly RP attacks (All Attacks), Change from Baseline, Median” value (participants with SSc-RP [1]; [6]) was -7.63 min, the “Average duration of weekly RP attacks (All Attacks), Change from Baseline, Q1” value (participants with SSc-RP [1]; [6]) was -8.48 min and the “Average duration of weekly RP attacks (All Attacks), Change from Baseline, Q3” value (participants with SSc-RP [1]; [6]) was 5.45 min. For the same compound, the “Average duration of weekly RP attacks (All Attacks), Percent Change from Baseline, Max” value (participants with SSc-RP [1]; [6]) was 21.8%, the “Average duration of weekly RP attacks (All Attacks), Percent Change from Baseline, Min” value (participants with SSc-RP [1]; [6]) was −71.8% and the “Average duration of weekly RP attacks (All Attacks), Percent Change from Baseline, Q1” value (participants with SSc-RP [1]; [6]) was −71.76%. The “Average duration of weekly RP attacks (All Attacks), Percent Change from Baseline, Q3” value (participants with SSc-RP [1]; [6]) was 21.82%, the “Average duration of weekly RP attacks (All Attacks), Baseline, Max” value (participants with SSc-RP [1]; [7]) was 40.0, 40.0 minutes and the “Average duration of weekly RP attacks (All Attacks), Baseline, Min” value (participants with SSc-RP [1]; [7]) was 40.0, 40.0 minutes. For the same compound, the “Average duration of weekly RP attacks (All Attacks), Baseline, Q1” value (participants with SSc-RP [1]; [7]) was 40.00, 40.00 minutes, the “Average duration of weekly RP attacks (All Attacks), Baseline, Q3” value (participants with SSc-RP [1]; [7]) was 40.00, 40.00 minutes and the “Average duration of weekly RP attacks (All Attacks), Baseline” value (participants with SSc-RP [1]; [8]) was 10.6 min. The “Average duration of weekly RP attacks (All Attacks), Baseline, Max” value (participants with SSc-RP [1]; [8]) was 25.0 min, the “Average duration of weekly RP attacks (All Attacks), Baseline, Q1” value (participants with SSc-RP [1]; [8]) was 10.63 min and the “Average duration of weekly RP attacks (All Attacks), Baseline, Q3” value (participants with SSc-RP [1]; [8]) was 25.00 min. The “Average duration of weekly RP attacks (All Attacks), Baseline” value (participants with SSc-RP [1]; [9]) was 10.6 min, the “Average duration of weekly RP attacks (All Attacks), Baseline, Max” value (participants with SSc-RP [1]; [9]) was 40.0 min and the “Average duration of weekly RP attacks (All Attacks), Baseline, Mean” value (participants with SSc-RP [1]; [9]) was 25.21 min. The “Average duration of weekly RP attacks (All Attacks), Baseline, Median” value (participants with SSc-RP [1]; [9]) was 25.00 min, the “Average duration of weekly RP attacks (All Attacks), Baseline, Q1” value (participants with SSc-RP [1]; [9]) was 10.63 min and the “Average duration of weekly RP attacks (All Attacks), Baseline, Q3” value (participants with SSc-RP [1]; [9]) was 40.00 min. The “VAS- PAIN, Baseline on a 0-10 VAS” value (participants with SSc-RP [2]; Cilnidipine 20 mg (n = 3), footnote *) was “*Baseline was 2.17 on a 0-10 VAS”, the “Visual Analog Scale-Pain, Baseline, Median” value (participants with SSc-RP [2]; Cilnidipine 20 mg, Modified ITT, Part A) was 1.500 and the “patient-reported SSc disease pain compared to placebo” value (participants with SSc-RP [2]; Example 4, SHAQ, mITT Part A) was “may reduce”. For the same compound, the “Visual Analog Scale-Intestinal Problems, Baseline, Median” value (participants with SSc-RP [3]) was 1.000.
